Measured values: US10556879B2, “Retinoid compound, preparation method therefor, intermediates thereof and application thereof” (SHANGHAI INSTITUTE OF ORGANIC CHEMISTRY, CHINESE ACADEMY OF …, priority 2016, dated 2020)

These compounds were tested on tumor-repopulating cells of B16-F1 melanoma (assay: Inhibitory activity on proliferation of tumor-repopulating cells (TRCs) of B16-F1 melanoma in 3D fibrin gel). Settings: Mus musculus, B16-F1, 120 h; 10 μM, incubated 5 days, colony tumor size; read-out: Inhibition rate on TRCs of B16-F1 melanoma at a concentration of 10 μM (%).
Format: cell-based
Experimental: B16-F1 Melanoma cells were incubated with 3D fibrin gel medium (90-Pa) for 5 days, and the desired tumor-repopulating cells of melanoma were screened (Nat. Mater. 2012, 11, 734). Subsequently, the culture medium was respectively treated with collagenase and neutral protease II, and the tumor-repopulating cells of B16-F1 melanoma were released, then the obtained repopulating cells were transferred to a freshly prepared medium to be resuspended and maintained at single-cell state. The tumor-repopulating cells of B16-F1 melanoma were inoculated in 3D fibrin gel medium (90-Pa) for 5 days, with 0.1% DMSO as the negative control group, Tazarotene and Bexarotene as the positive control drugs respectively, […] for 5 days. The colony tumor size was measured and calculated, and the inhibition rate of each drug on the tumor-repopulating cells of B16-F1 melanoma was calculated. The results of inhibitory activity of the compound of the present invention on the proliferation of tumor-repopulating cells of B16-F1 melanoma were shown in Table 2 below.
Work on CCOC(=O)c1ccc(C#Cc2ccc3c(c2)C(C)(C)CC[S+]3[O-])c(F)c1F (centres unmarked) [WYC-315, ethyl 2,3-difluoro-4-((4,4-dimethyl-1-oxothiochroman-6-yl)ethynyl)benzoate] yielded an inhibition at 10 µM of 70.1%.
COC(=O)c1ccc(C#Cc2ccc3c(c2)C(C)(C)CCS3)c(NC(C)=O)c1 [WYC-316, methyl 3-acetamido-4-((4,4-dimethylthiochroman-6-yl)ethynyl)benzoate] gave an inhibition at 10 µM of 76.2%.
For CCOC(=O)c1ccc(C#Cc2ccc3c(c2)C(C)(C)CCS3)c(NC(C)=O)c1 [WYC-317, ethyl 3-acetamido-4-((4,4-dimethylthiochroman-6-yl)ethynyl)benzoate], the inhibition at 10 µM was 86.4%.
With CCOC(=O)c1ccc(C#Cc2ccc3c(c2)C(C)(C)CC[S+]3[O-])c(NC(C)=O)c1 (centres unmarked) [WYC-318, ethyl 3-acetamido-4-((4,4-dimethyl-1-oxothiochroman-6-yl)ethynyl)benzoate] the inhibition at 10 µM was 60%.
Compound CC(=O)Nc1cc(C(=O)O)ccc1C#Cc1ccc2c(c1)C(C)(C)CCS2 [WYC-319, 3-acetamido-4-((4,4-dimethylthiochroman-6-yl)ethynyl)benzoic Acid] has an inhibition at 10 µM of 65.8%.
With CCOC(=O)c1cnc(C#Cc2ccc3c(c2)C(C)(C)CCS3(=O)=O)nc1 [WYC-320, ethyl 2-((4,4-dimethyl-1,1-dioxothiochroman-6-yl)ethynyl)pyrimidin-5-carboxylate] the inhibition at 10 µM was 92.6%.
In the case of COC(=O)c1ccc(C#Cc2ccc3c(c2)C(C)(C)CC[S+]3[O-])c(NC(C)=O)c1 (centres unmarked) [WYC-321, methyl 3-acetamido-4-((4,4-dimethyl-1-oxothiochroman-6-yl)ethynyl)benzoate], the inhibition at 10 µM was 78.2%.
CCOC(=O)c1cnc(C#Cc2ccc3c(c2)C(C)(C)CCS3)cn1 [WYC-322, ethyl 5-((4,4-dimethylthiochroman-6-yl)ethynyl)pyrazin-2-carboxylate] gave an inhibition at 10 µM of 78.8%.
With CC1(C)CCSc2ccc(C#Cc3cnc(C(=O)O)cn3)cc21 [WYC-323, 5-((4,4-dimethylthiochroman-6-yl)ethynyl)pyrazin-2-carboxylic Acid] the inhibition at 10 µM was 76%.
CCOC(=O)c1cnc(C#Cc2ccc3c(c2)C(C)(C)CC[S+]3[O-])cn1 (centres unmarked) [WYC-324, ethyl 5-((4,4-dimethyl-1-oxothiochroman-6-yl)ethynyl)pyrazin-2-carboxylate] was tested, and the inhibition at 10 µM was 85.1%.
In the case of CCOC(=O)c1ccc(C#Cc2ccc3c(c2)C(C)(C)CCS3)cc1Cl [WYC-325, ethyl 2-chloro-4-((4,4-dimethylthiochroman-6-yl)ethynyl)benzoate], the inhibition at 10 µM was 74.2%.
CCOC(=O)c1ccc(C#Cc2ccc3c(c2)C(C)(C)CC[S+]3[O-])cc1Cl (centres unmarked) [WYC-326, ethyl 2-chloro-4-((4,4-dimethyl-1-oxothiochroman-6-yl)ethynyl)benzoate] showed an inhibition at 10 µM of 73.4%.
CC1(C)CCSc2ccc(C#Cc3ccc(C(=O)O)c(Cl)c3)cc21 [WYC-327, 2-chloro-4-((4,4-dimethylthiochroman-6-yl)ethynyl)benzoic Acid] gave an inhibition at 10 µM of 75.7%.
CC1(C)CCC(C)(C)c2cc(C#Cc3cnc(C#N)nc3)ccc21 [WYC-329, 2-cyano-5-((5,5,8,8-tetramethyl-5,6,7,8-tetrahydronaphth-2-yl)ethynyl)pyrimidine] gave an inhibition at 10 µM of 94.5%.
CC1(C)CCC(C)(C)c2cc(C#Cc3ccc(C(=O)O)c(N)c3)ccc21 [WYC-330, 2-amino-4-((5,5,8,8-tetramethyl-5,6,7,8-tetrahydronaphth-2-yl)ethynyl)benzoic Acid] showed an inhibition at 10 µM of 79%.
COC(=O)c1ccc(C#Cc2ccc3c(c2)C(C)(C)CCC3(C)C)c(O)c1 [WYC-332, methyl 3-hydroxy-4-((5,5,8,8-tetramethyl-5,6,7,8-tetrahydronaphth-2-yl)ethynyl)benzoate] gave an inhibition at 10 µM of 55.9%.
CC1(C)CCC(C)(C)c2cc(C#Cc3ccc(C#N)cn3)ccc21 [WYC-333, 2-((5,5,8,8-tetramethyl-5,6,7,8-tetrahydronaphth-2-yl)ethynyl)-5-cyanopyridine] was tested, and the inhibition at 10 µM was 69.1%.
For CCOC(=O)c1ncc(C#Cc2ccc3c(c2)C(C)(C)CCC3(C)C)cn1 [WYC-334, ethyl 5-((5,5,8,8-tetramethyl-5,6,7,8-tetrahydronaphth-2-yl)ethynyl)pyrimidin-2-carboxylate], the inhibition at 10 µM was 80.6%.
In the case of CC1(C)CCC(C)(C)c2cc(C#Cc3ccc(C(=O)O)c(O)c3)ccc21 [WYC-335, 2-hydroxy-4-((5,5,8,8-tetramethyl-5,6,7,8-tetrahydronaphth-2-yl)ethynyl)benzoic Acid], the inhibition at 10 µM was 86.9%.
CC(=O)Nc1cc(C#Cc2ccc3c(c2)C(C)(C)CCC3(C)C)ccc1C(=O)O [WYC-336, 2-acetyl amino-4-((5,5,8,8-tetramethyl-5,6,7,8-tetrahydronaphth-2-yl)ethynyl)benzoic Acid] was tested, and the inhibition at 10 µM was 86.7%.
Work on CC1(C)CCC(C)(C)c2cc(C#Cc3ccc(C(=O)O)nc3)ccc21 [WYC-337, 5-((5,5,8,8-tetramethyl-5,6,7,8-tetrahydronaphth-2-yl)ethynyl)pyridin-2-carboxylic Acid] yielded an inhibition at 10 µM of 87.5%.
For COC(=O)c1ncc(C#Cc2ccc3c(c2)C(C)(C)CCC3(C)C)cn1 [WYC-338, methyl 5-((5,5,8,8-tetramethyl-5,6,7,8-tetrahydronaphth-2-yl)ethynyl)pyrimidin-2-carboxylate], the inhibition at 10 µM was 69%.
Compound CCOC(=O)c1ccc(C#Cc2ccc3c(c2)C(C)(C)CCC3(C)C)cn1 [WYC-341, ethyl 5-((5,5,8,8-tetramethyl-5,6,7,8-tetrahydronaphth-2-yl)ethynyl)pyridin-2-carboxylate] has an inhibition at 10 µM of 87%.
For CCOC(=O)c1cnc(C#Cc2ccc3c(c2)C(C)(C)CCC3(C)C)cn1 [WYC-342, ethyl 5-((5,5,8,8-tetramethyl-5,6,7,8-tetrahydronaphth-2-yl)ethynyl)pyrazin-2-carboxylate], the inhibition at 10 µM was 77.6%.

Same assay, conditions: Mus musculus, B16-F1, dose-response curve, colony tumor volume; read-out: IC50 of inhibition on TRCs of B16-F1 melanoma/μM
CCOC(=O)c1cnc(C#Cc2ccc3c(c2)C(C)(C)CCS3(=O)=O)nc1 [WYC-320, ethyl 2-((4,4-dimethyl-1,1-dioxothiochroman-6-yl)ethynyl)pyrimidin-5-carboxylate] gave an IC50 of 1.65 µM.
CC1(C)CCC(C)(C)c2cc(C#Cc3cnc(C#N)nc3)ccc21 [WYC-329, 2-cyano-5-((5,5,8,8-tetramethyl-5,6,7,8-tetrahydronaphth-2-yl)ethynyl)pyrimidine] showed an IC50 of 0.5 µM.

Same assay, conditions: Mus musculus, B16-F1; 10 μM (Table 3); read-out: Inhibition rate on TRCs of B16-F1 melanoma at a concentration of 10 μM/%
Compound CCOC(=O)c1cnc(C#Cc2ccc3c(c2)C(C)(C)CCS3(=O)=O)nc1 [WYC-320, ethyl 2-((4,4-dimethyl-1,1-dioxothiochroman-6-yl)ethynyl)pyrimidin-5-carboxylate] has an inhibition at 10 µM of 92.6%.
For CC1(C)CCC(C)(C)c2cc(C#Cc3cnc(C#N)nc3)ccc21 [WYC-329, 2-cyano-5-((5,5,8,8-tetramethyl-5,6,7,8-tetrahydronaphth-2-yl)ethynyl)pyrimidine], the inhibition at 10 µM was 94.5%.

The compounds below were run on subcutaneous implantation tumor of B16-F1 melanoma (assay: Subcutaneous implantation model of B16-F1 melanoma in immunocompetent mice). Settings: mouse, in vivo.
Format: in vivo, mice (C57BL/6)
Experimental: A subcutaneous implantation model of B16-F1 melanoma in immunocompetent mice (C57BL/6, female, 6-8 weeks) was established to study the inhibitory activity of compound WYC-103 on the tumor in situ. Firstly, B16-F1 cells were incubated within 3D fibrin gel (90-Pa in gel stiffness) that was immersed in culture medium for 5 days, and the desired tumor-repopulating cells were screened. Subsequently, the culture medium was respectively treated with collagenase and neutral protease II, and the tumor-repopulating cells of B16-F1 melanoma were released, then the obtained repopulating cells were transferred to a freshly prepared medium to be re-suspended and maintained at single-cell state.
Six immunocompetent mice were randomly divided into two groups which were respectively the treatment group and the DMSO negative control group. Mice were subcutaneously injected with 30,000 tumor-repopulating cells of melanoma to establish a subcutaneous implantation model of melanoma. Subsequently, Mice were administered via tail vein injection based on the body weight and the blood volume of the mice. From day 0, mice in the treatment group were administrated with WYC-103 once every 2 days at a blood concentration of 10 μM and fed normally, observing the survival of the mice. […] According to the statistical analysis, the tumor volume in the treatment group was only 50% of the control group (FIG. 12).
This experiment was repeated in order to further confirm the inhibitory activity of WYC-103 on subcutaneous implantation tumor of B16-F1 melanoma. In the present experiment, 18 immunocompetent mice (C57BL/6, female, 6-8 weeks) were randomly divided into three groups which were respectively the treatment group, the positive control group (BMS-453 was used as the positive drug) and the DMSO negative control group. Subsequently, Mice were administered via tail vein injection based on the body weight and the blood volume of the mice. From day 0, mice in the treatment group were administrated with WYC-103 once every 2 days at a blood concentration of 10 μM; mice in the positive control group were administered with BMS-453 (WYC-114) as the positive drug in the same route of administration; mice in the negative control group was administered with 0.1% DMSO in a same route of administration.
For CC1(C)CC=C(c2ccccc2)c2cc(/C=C/c3ccc(C(=O)O)cc3)ccc21 [BMS-453, reference compound], the “body weight of the mice” value was “significantly reduced”, the “dissection of peritoneal/abdominal cavity” value was “a large number of abnormal foamy structure appeared in the peritoneal cavity” and the toxic side effects was “a greater toxic side effect”.

Same assay, conditions: repeated experiment, on the 20th day
For CC1(C)CC=C(c2ccccc2)c2cc(/C=C/c3ccc(C(=O)O)cc3)ccc21 [BMS-453, reference compound], the mice died was “all the mice in the positive control group died”.
